Source: ChEMBL document CHEMBL5724914, “Linking interpersonal differences in gut microbiota composition and drug biotransformation activity” (2024)

Assays:
[1] = (§1) The drug is tested on Z-027 corresponding to metagenome with ENA study accession number: PRJEB37062 and ENA sample accession number: ERS12561826 for biotransformation under anaerobic condition. The drug concentrations were measured over 9 timepoints collected between 0 and 24 hours of incubation by liquid-chromatography-coupled mass spectrometry (LC–MS); settings: 2 µM
[2] = as §1, with “Z-026” for “Z-027”, “ERS12561825” for “ERS12561826”; settings: 2 µM
[3] = (§2) The drug is tested on Z-024 corresponding to pig gut metagenome with ENA study accession number: PRJEB37062 and ENA sample accession number: ERS12561823 for biotransformation under anaerobic condition. The drug concentrations were measured over 9 timepoints collected between 0 and 24 hours of incubation by liquid-chromatography-coupled mass spectrometry (LC–MS); settings: 2 µM
[4] = as §2, with “Z-022” for “Z-024”, “mouse” for “pig”, “ERS12561821” for “ERS12561823”; settings: 2 µM
[5] = as §2, with “Z-009” for “Z-024”, “ERS12561809” for “ERS12561823”; settings: 2 µM
[6] = as §1, with “Z-005” for “Z-027”, “ERS12561805” for “ERS12561826”; settings: 2 µM
[7] = as §1, with “Z-004” for “Z-027”, “ERS12561804” for “ERS12561826”; settings: 2 µM
[8] = as §2, with “WLS-086” for “Z-024”, “human” for “pig”, “ERS12561752” for “ERS12561823”; settings: 2 µM
[9] = as §2, with “WLS-082” for “Z-024”, “human” for “pig”, “ERS12561751” for “ERS12561823”; settings: 2 µM
[10] = as §2, with “WLS-069” for “Z-024”, “human” for “pig”, “ERS12561748” for “ERS12561823”; settings: 2 µM
[11] = as §2, with “WLS-010” for “Z-024”, “human” for “pig”, “ERS12561743” for “ERS12561823”; settings: 2 µM
[12] = human gut metagenome, 24 h, 2 µM
[13] = human gut metagenome, 24 h, 2 µM; remark: listed apart in the source
[14] = human gut metagenome, 24 h, 2 µM; remark: listed apart in the source
[15] = human gut metagenome, 24 h, 2 µM; remark: listed apart in the source
[16] = human gut metagenome, 24 h, 2 µM; remark: listed apart in the source
[17] = human gut metagenome, 24 h, 2 µM; remark: listed apart in the source
[18] = human gut metagenome, 24 h, 2 µM; remark: listed apart in the source
[19] = human gut metagenome, 24 h, 2 µM; remark: listed apart in the source
[20] = human gut metagenome, 24 h, 2 µM; remark: listed apart in the source
Note: call rule not given here.

SMILES | Bacterial Biotransformation [1] | Bacterial Biotransformation [2] | Bacterial Biotransformation [3] | Bacterial Biotransformation [4] | Bacterial Biotransformation [5] | Bacterial Biotransformation [6] | Bacterial Biotransformation [7] | Bacterial Biotransformation [8] | Bacterial Biotransformation [9] | Bacterial Biotransformation [10] | Bacterial Biotransformation [11] | Bacterial Biotransformation [12] | Bacterial Biotransformation [13] | Bacterial Biotransformation [14] | Bacterial Biotransformation [15] | Bacterial Biotransformation [16] | Bacterial Biotransformation [17] | Bacterial Biotransformation [18] | Bacterial Biotransformation [19] | Bacterial Biotransformation [20]
CN(C)CC(c1ccc(O)cc1)C1(O)CCCCC1.O=C(O)CCC(=O)O (stereo not given) [DESVENLAFAXINE SUCCINATE] | Compound NOT metabolized | Compound NOT metabolized | Compound NOT metabolized | Compound NOT metabolized | Compound NOT metabolized | Compound NOT metabolized | Compound NOT metabolized | Compound NOT metabolized | Compound NOT metabolized | Compound NOT metabolized | Compound NOT metabolized | Compound NOT metabolized | Compound NOT metabolized | Compound NOT metabolized | Compound NOT metabolized | Compound NOT metabolized | Compound NOT metabolized | Compound NOT metabolized | Compound NOT metabolized | Compound NOT metabolized
CN1CCN(C(=O)O[C@H]2c3nccnc3C(=O)N2c2ccc(Cl)cn2)CC1 [ESZOPICLONE] | Compound NOT metabolized | Compound NOT metabolized | Compound NOT metabolized | Compound NOT metabolized | Compound NOT metabolized | Compound NOT metabolized | Compound NOT metabolized | Compound NOT metabolized | Compound NOT metabolized | Compound NOT metabolized | Compound NOT metabolized | Compound NOT metabolized | Compound NOT metabolized | Compound NOT metabolized | Compound NOT metabolized | Compound NOT metabolized | Compound NOT metabolized | Compound NOT metabolized | Compound NOT metabolized | Compound NOT metabolized
O=C1[C@H](CC[C@H](O)c2ccc(F)cc2)[C@@H](c2ccc(O)cc2)N1c1ccc(F)cc1 [EZETIMIBE] | Compound NOT metabolized | Compound NOT metabolized | Compound NOT metabolized | Compound NOT metabolized | Compound NOT metabolized | Compound NOT metabolized | Compound NOT metabolized | Compound metabolized | Compound metabolized | Compound metabolized | Compound metabolized | Compound metabolized | Compound NOT metabolized | Compound NOT metabolized | Compound NOT metabolized | Compound NOT metabolized | Compound NOT metabolized | Compound NOT metabolized | Compound metabolized | Compound metabolized
CC(C)OC(=O)C(C)(C)Oc1ccc(C(=O)c2ccc(Cl)cc2)cc1 [FENOFIBRATE] | Compound metabolized | Compound metabolized | Compound NOT metabolized | Compound NOT metabolized | Compound metabolized | Compound metabolized | Compound metabolized | Compound metabolized | Compound NOT metabolized | Compound NOT metabolized | Compound NOT metabolized | Compound metabolized | Compound metabolized | Compound metabolized | Compound metabolized | Compound NOT metabolized | Compound metabolized | Compound NOT metabolized | Compound metabolized | Compound NOT metabolized
O=C1NCC2(CCN(CCc3ccccc3)CC2)O1 [FENSPIRIDE] | Compound NOT metabolized | Compound NOT metabolized | Compound NOT metabolized | Compound metabolized | Compound NOT metabolized | Compound NOT metabolized | Compound NOT metabolized | Compound metabolized | Compound NOT metabolized | Compound NOT metabolized | Compound NOT metabolized | Compound NOT metabolized | Compound NOT metabolized | Compound NOT metabolized | Compound metabolized | Compound NOT metabolized | Compound NOT metabolized | Compound NOT metabolized | Compound NOT metabolized | Compound NOT metabolized
OC(Cn1cncn1)(Cn1cncn1)c1ccc(F)cc1F [FLUCONAZOLE] | Compound NOT metabolized | Compound NOT metabolized | Compound metabolized | Compound metabolized | Compound NOT metabolized | Compound NOT metabolized | Compound NOT metabolized | Compound metabolized | Compound metabolized | Compound metabolized | Compound NOT metabolized | Compound NOT metabolized | Compound metabolized | Compound NOT metabolized | Compound metabolized | Compound NOT metabolized | Compound metabolized | Compound metabolized | Compound metabolized | Compound metabolized
CNCCC(Oc1ccc(C(F)(F)F)cc1)c1ccccc1 (stereo not given) [FLUOXETINE] | Compound NOT metabolized | Compound NOT metabolized | Compound NOT metabolized | Compound NOT metabolized | Compound NOT metabolized | Compound NOT metabolized | Compound NOT metabolized | Compound NOT metabolized | Compound NOT metabolized | Compound NOT metabolized | Compound NOT metabolized | Compound NOT metabolized | Compound metabolized | Compound metabolized | Compound NOT metabolized | Compound NOT metabolized | Compound NOT metabolized | Compound NOT metabolized | Compound metabolized | Compound metabolized
O=C(CCCN1CCC(O)(c2ccc(Cl)cc2)CC1)c1ccc(F)cc1 [HALOPERIDOL] | Compound NOT metabolized | Compound NOT metabolized | Compound NOT metabolized | Compound NOT metabolized | Compound metabolized | Compound NOT metabolized | Compound NOT metabolized | Compound metabolized | Compound metabolized | Compound metabolized | Compound NOT metabolized | Compound NOT metabolized | Compound NOT metabolized | Compound NOT metabolized | Compound NOT metabolized | Compound NOT metabolized | Compound NOT metabolized | Compound metabolized | Compound metabolized | Compound NOT metabolized
